Laboratory results: US20170368082A1, “FORMULATIONS OF BRINCIDOFOVIR” (priority 2016, published 2017)

Assay: Blood and plasma pharmacokinetics of total radioactivity after IV or oral [^14C]brincidofovir
Format: in vivo, male Sprague Dawley and Long-Evans rats
Description: The study utilized 4 groups of male SD rats (albino), and 3 groups of male LE rats (pigmented); a total of 39 rats. All animals were obtained from Hilltop Lab Animals, Inc. (Scottdale, Pa.). Rats weighed between 214 and 265 g at dosing. Rats in Groups 1, 2, 3, and 4 were administered a single 2-hour (h) IV infusion of [^14C]brincidofovir at a target dose of 15 mg/kg. Rats in Group 5 were administered a single 2-h IV infusion of [^14C]brincidofovir at a target dose of 2 mg/kg. Rats in Group 6, and 7 were administered a single oral gavage administration of [^14C]brincidofovir at a target dose of 15 mg/kg. Three dosing formulations (one for high dose IV, one for low dose IV, and one for PO dose) were prepared at QPS on the day of dosing. The IV formulation for Groups 1, 2, 3, and 4 contained a vehicle of 10 mM sodium phosphate buffer in 5% dextrose solution at pH 8.0(±0.1). The IV formulation for Group 5 contained a vehicle of 16 mM sodium phosphate buffer in 5% dextrose solution at pH 8.0(±0.1), and the PO dosing formulation contained a vehicle of 12.5 mM sodium phosphate buffer at pH 8.0(±0.1). The IV dose formulation for Group 5 and the PO dose formulation for Groups 6 and 7 contained higher concentration of buffer so that the final buffer concentration was approximately 10 mM in all dose formulations.
Blood was collected from each animal in Group 2 (IV infusion) for plasma and blood analysis at the times listed below.
Terminal blood samples were collected by cardiac puncture into pre-labeled blood collection tubes that contained K2EDTA as an anticoagulant. A terminal sample (N=1 per time point) was collected at 0.5, 1, 2, 4, 8, 24, and 72 h after initiation of infusion and the volume was not limited. Triplicate weighed aliquots of blood (0.100 g) were removed and analyzed for total radioactivity using combustion followed by LSC. Blood aliquots were maintained at approximately 4° C. until analysis. The remaining blood samples were maintained on wet ice (approximately 4° C.) and then centrifuged to obtain plasma within 1 h of the blood collection time. Centrifuge settings were recorded in the study notebook. Duplicate aliquots of plasma (0.050 mL) were analyzed for radioactivity using direct counting by LSC, and residual plasma was stored at approximately −70° C. and was saved for possible future analysis under a separate study protocol. Residual red blood cells and the animal carcasses of Group 2 rats were discarded as radioactive waste.
Each rat was deeply anesthetized via isoflurane anesthesia, a blood sample was collected by cardiocentesis (approximately 2 mL) into tubes that contained K2EDTA as the anticoagulant, and the rat was euthanized by being frozen in a hexane/solid carbon dioxide bath for at least 15 min. The blood samples were maintained on wet ice (approximately 4° C.) and then centrifuged to obtain plasma within 1 h of the blood collection time. Centrifuge settings were recorded in the study notebook. Duplicate aliquots of plasma (0.050 mL) were analyzed for radioactivity using direct counting by LSC, and residual plasma was stored at approximately −70° C. and was saved for possible future analysis under a separate study protocol. Residual red blood cells were discarded as radioactive waste.
Triplicate weighed aliquots (˜0.100 g) of blood aliquots (Group 2 only) were combusted in the Packard Sample Oxidizer, followed by LSC analysis.
Urine (0.300 mL), and plasma (0.050 mL) specimens were thawed, if necessary, then aliquoted in duplicate by volume and analyzed by LSC. Volumes or weights of sample aliquots were documented in the study records. Ultima Gold scintillation fluid (5 mL, PerkinElmer) was added to each urine, and plasma aliquot, aliquot were mixed thoroughly, and then analyzed by LSC for radioactivity.

[1] = Plasma (LSC), PO 15 mg/kg, Group 7
[2] = Plasma (by LSC), 15 mg/kg, Group 7 vs Group 4
[3] = 0.5 h, SD rats Group 2, 15 mg/kg IV
[4] = 1 h, SD rats Group 2, 15 mg/kg IV
[5] = 2 h, SD rats Group 2, 15 mg/kg IV
[6] = 4 h, SD rats Group 2, 15 mg/kg IV
[7] = 8 h, SD rats Group 2, 15 mg/kg IV
[8] = 24 h, SD rats Group 2, 15 mg/kg IV
[9] = 72 h, SD rats Group 2, 15 mg/kg IV
[10] = Blood, SD rats Group 2, 15 mg/kg IV
[11] = Plasma, SD rats Group 2, 15 mg/kg IV
[12] = SD rats Group 2, 15 mg/kg 2-h IV

In the case of `CCCCCCCCCCCCCCCCOCCCOP(=O)(O)CO[C@H](CO)Cn1ccc(N)nc1=O` [[14C]brincidofovir], the AUCall [1] is reported as 22.3885 μg equiv · h/g and the Tmax [1] is reported as 8 h.
For `CCCCCCCCCCCCCCCCOCCCOP(=O)(O)CO[C@H](CO)Cn1ccc(N)nc1=O` [[^14C] brincidofovir], the AUCall [1] was 22.3885 μg equiv · h/g, the “AUCall Ratio (PO/IV)” value [2] was 0.62 and the “Cmax Ratio (PO/IV)” value [2] was 0.30. The AUCall (Plasma (by LSC), 2 h IV infusion 15 mg/kg, Group 4) was 36.3690 μg equiv · h/g, the “Tissue Concentration (168 h)” value (Plasma (by LSC), 2 h IV infusion 15 mg/kg, Group 4, LLOQ 0.036) was “BQL” and the “Tissue Concentration (168 h)” value (Plasma (by LSC), PO 15 mg/kg, Group 7, LLOQ 0.034) was “BQL”.
With `CCCCCCCCCCCCCCCCOCCCOP(=O)(O)CO[C@H](CO)Cn1ccc(N)nc1=O` [[^14C]brincidofovir] the “Plasma t1/2” value (15 mg/kg PO) was “approximately 5 h”, the “Blood Concentration” value [3] was 1.666 μg equiv/mL and the “Blood to Plasma Ratio” value [3] was 0.65. For the same compound, the “Plasma Concentration” value [3] was 2557 ng/mL, the “Blood Concentration” value [4] was 3.017 μg equiv/mL and the “Blood to Plasma Ratio” value [4] was 0.65. The “Plasma Concentration” value [4] was 4609 ng/mL, the “Blood Concentration” value [5] was 6.393 μg equiv/mL and the “Blood to Plasma Ratio” value [5] was 0.62. The “Plasma Concentration” value [5] was 10297 ng/mL, the “Blood Concentration” value [6] was 3.845 μg equiv/mL and the “Blood to Plasma Ratio” value [6] was 0.72. For the same compound, the “Plasma Concentration” value [6] was 5363 ng/mL, the “Blood Concentration” value [7] was 1.584 μg equiv/mL and the “Blood to Plasma Ratio” value [7] was 0.81. The “Plasma Concentration” value [7] was 1961 ng/mL, the “Blood Concentration” value [8] was 0.294 μg equiv/mL and the “Blood to Plasma Ratio” value [8] was 1.26. The “Plasma Concentration” value [8] was 234 ng/mL, the “Blood Concentration” value [9] was 0.057 μg equiv/mL and the “Blood to Plasma Ratio” value [9] was 1.27. The “Plasma Concentration” value [9] was 45 ng/mL, the “Blood to Plasma Ratio” value (72 hours, 2 mg/kg IV) was 1.42 and the “Blood to Plasma Ratio” value (72 hours, 15 mg/kg IV) was 3.06. The AUCall [10] was 50.836 μg equiv-h/mL, the “AUCinf—obs” value [10] was 52.028 μg equiv-h/mL and the AUClast [10] was 50.836 μg equiv-h/mL. For the same compound, the Cmax [10] was 6.393 μg equiv/mL, the Tmax [10] was 2 h and the t1/2 [10] was 14.5 h. For the same compound, the “Blood to Plasma Ratio” value (Group 2 SD rats, 24 h) was 1.26, the “Blood to Plasma Ratio” value (Group 2 SD rats, 72 h) was 1.27 and the “Blood:Plasma Ratio” value (Group 3/SD, IV 15 mg/kg, 2 h) was 0.96. The “Blood:Plasma Ratio” value (Group 3/SD, IV 15 mg/kg, 24 h) was 1.23, the “Blood:Plasma Ratio” value (Group 4/LE, IV 15 mg/kg, 1 h) was 1.10 and the “Blood:Plasma Ratio” value (Group 4/LE, IV 15 mg/kg, 2 h) was 1.08. For the same compound, the “Blood:Plasma Ratio” value (Group 4/LE, IV 15 mg/kg, 4 h) was 0.92, the “Blood:Plasma Ratio” value (Group 4/LE, IV 15 mg/kg, 8 h) was 1.39 and the “Blood:Plasma Ratio” value (Group 4/LE, IV 15 mg/kg, 24 h) was 1.46. For the same compound, the “Blood:Plasma Ratio” value (Group 4/LE, IV 15 mg/kg, 72 h) was 3.06, the “Blood:Plasma Ratio” value (Group 5/LE, IV 2 mg/kg, 2 h) was 0.89 and the “Blood:Plasma Ratio” value (Group 5/LE, IV 2 mg/kg, 8 h) was 1.03. The “Blood:Plasma Ratio” value (Group 5/LE, IV 2 mg/kg, 24 h) was 1.41, the “Blood:Plasma Ratio” value (Group 5/LE, IV 2 mg/kg, 72 h) was 1.25 and the “Blood:Plasma Ratio” value (Group 6/SD, PO 15 mg/kg, 2 h) was 0.64. The “Blood:Plasma Ratio” value (Group 6/SD, PO 15 mg/kg, 24 h) was 0.78, the “Blood:Plasma Ratio” value (Group 7/LE, PO 15 mg/kg, 1 h) was 1.13 and the “Blood:Plasma Ratio” value (Group 7/LE, PO 15 mg/kg, 2 h) was 0.98. The “Blood:Plasma Ratio” value (Group 7/LE, PO 15 mg/kg, 4 h) was 0.80, the “Blood:Plasma Ratio” value (Group 7/LE, PO 15 mg/kg, 8 h) was 0.76 and the “Blood:Plasma Ratio” value (Group 7/LE, PO 15 mg/kg, 24 h) was 0.87. For the same compound, the “Blood to Plasma Ratio” value (IV infusion, 1 to 24 hours after start) was 0.89-1.46, the “Blood to plasma ratio, median” value (IV or oral) was 1.00 and the “Plasma AUClast” value (LE rats, 15 mg/kg PO) was 21.0 μg equiv·h/mL. For the same compound, the “Plasma Cmax of total radioactivity” value (LE rats, 15 mg/kg PO) was 1.5 μg equiv/mL, the “Plasma Tmax” value (LE rats, 15 mg/kg PO) was 8 h and the “Plasma concentration at 24 h post-dose” value (LE rats, 15 mg/kg PO) was 0.180 μg equiv/mL. For the same compound, the “Blood to Plasma Ratio” value (PO, LE rats, 1 h to 24 h) was 0.76-1.13, the AUCall [11] was 64.448 μg equiv-h/mL and the “AUCinf—obs” value [11] was 65.292 μg equiv-h/mL. It also gave an AUClast [11] of 64.448 μg equiv-h/mL, a Cmax [11] of 10.297 μg equiv/mL and a Tmax [11] of 2 h. The t1/2 [11] was 13.0 h, the “Plasma AUClast” value [12] was 64.4 μg equiv·h/mL and the “Plasma Cmax of total radioactivity” value [12] was 10.3 μg equiv/mL. The “Plasma Tmax” value [12] was 2 h, the “Plasma concentration at 72 h post-dose” value [12] was 0.045 μg equiv/mL and the “Plasma t1/2” value [12] was 13.0 h. For the same compound, the “Oral bioavailability of radioactivity (AUCall PO/AUCall IV)” value (blood) was 48%, the Radioactive bioavailability (oral) was “approximately 50%” and the “Blood:Plasma Ratio” value (oral administration, up to 24 h (Groups 6-7)) was 0.64-1.13. For the same compound, the “Oral bioavailability of radioactivity (AUCall PO/AUCall IV)” value (plasma) was 61%.
